This passage reports IC50 results from EP4578861A1, “NOVEL TRICYCLIC HETEROCYCLIC CARBALDEHYDE COMPOUND AND PHARMACEUTICAL COMPOSITION, CONTAINING SAME, FOR IRE1ALPHA INHIBITION” (Hanmi Pharm. Co., Ltd., priority 2022, dated 2024).

The test deals with spliced XBP1. Description: Spliced XBP1 mRNA measurement test (RT-PCR, tunicamycin-induced ER stress in MCF-7 cells). It is filed as cell-based. As to conditions: then 2 µg/mL tunicamycin for 6 or 24 hours, spliced XBP1 corrected by total XBP1. On the procedure:
With respect to these synthetic compounds, reverse transcription polymerase chain reaction (RT-PCR) experiments were conducted on MCF-7 cancer cells to confirm the effect thereof on the mRNA and protein amounts of spliced XBP1, which is the target of IRE endonuclease. A reverse transcription polymerase chain reaction is a test method in which RNA is extracted from cells, reverse transcriptase is used to make cDNA, and relative mRNA expression level is measured through a polymerase chain reaction.
Briefly, MCF-7 cells were seeded in a 12-well plate and cultured in an incubator including 5% CO2 for one day. On the next day, compounds, which were 10-fold serially diluted from 10,000 nM, were pre-treated for 1 hour, and then, treated with 2 µg/mL tunicamycin for 6 or 24 hours to induce endoplasmic reticulum stress, followed by cell lysis to obtain RNA. RNA was subjected to the procedure of RNeasy Kits (Qiagen, 74106), and 5 µg of RNA sample was dissolved in a sample including reverse transcriptase and dNTP, and reverse transcription reaction was performed with a thermal cycler. The amount of mRNA of each of spliced XBP1 and total XBP1 was measured by a polymerase chain reaction through real time PCR by mixing each cDNA sample with a PCR reaction mixture including a primer pair capable of binding specifically to each target and SYBR green dye. The expression level of spliced XBP1 was corrected by the total expression level of XBP1, and the relative expression levels of spliced XBP1 between samples were compared and analyzed.

Turning to `Cc1c(CC(=O)N2CCNCC2)c(=O)oc2c(C=O)c(O)c3c(c12)CCCO3` [Example 31, 6-hydroxy-1-methyl-3-oxo-2-(2-oxo-2-(piperazin-1-yl)ethyl)-3,8,9,10-tetrahydropyrano[3,2-f]chromene-5-carbaldehyde], where the note is “Homo sapiens, MCF7, compound pre-treated for 1 hour”, the IC50 was no less than 200 nM. Regarding `COc1cc2c(C)c(CC(=O)N3CCOCC3)c(=O)oc2c(C=O)c1O` [MKC8866, reference compound], the IC50 (compound pre-treated for 1 hour) was less than 100 nM.

As usually defined, the IC50 is the concentration needed to halve the response being measured.
